# Experimental data as given in patent US20120295805A1, “SOLID PHASE METHODS FOR THE[…] KINETIC QUANTIFICATION OF INTERACTIONS BETWEEN NUCLEIC ACIDS AND SMALL MOLECULES” (priority 2011, published 2012).
# Assays:
# [1] = tested on: 10mer DNA sequence AGAATTGAGT possessing a high-affinity site (-AATT-); assay: Electrochemically-determined surface melt curves (solid phase DNA denaturation, cyclic voltammetry of ferrocene-labeled strand); type: binding; details: 2×10^−6 M netropsin
# Description: (B) Shape comparison of solution and surface melting transitions.
# In this example, one strand was immobilized while the electroactively-labeled complementary strand was present in solution. Immobilization was realized through a single thiolate (—S—Au) linkage between DNA and the gold electrode support, with mercaptohexanol passivation used to block the remaining surface. (86) Hybridization occurred to the extent governed by thermodynamics under the imposed conditions of temperature and drug concentration. The extent of hybridization was tracked as a function of temperature with cyclic voltammetry, which allows determination of the coverage of double-stranded molecules from the total charge derived from their ferrocene labels. (87-88)
# A number of noteworthy conclusions follow from FIG. 5A. The cooling and heating cycles superpose, confirming closeness to equilibrium at the tested scan rate of 0.4° C./min.
# This is expected since netropsin prefers to bind to double-stranded DNA. (89) The free energy of binding (i.e. affinity) determined from the surface approach (FIG. 5A) is in reasonable agreement with solution methods. […]
# [2] = tested on: MB 5′ Fluorescein-CAATTCCTCT12GAATTG-BHQ1-C7-Amine 3′ with high affinity AATT site in the stem; assay: TIRF-imaged melt curves of surface-immobilized molecular beacons (MB microarray); type: binding; details: 2 μM netropsin, 0.1 M pH 7 phosphate buffer, average of 9 spots
# Experimental: The field of view is 4 mm diameter. (B) Melting curves of surface-immobilized MBs without and with 2 μM netropsin in 0.1 M phosphate buffer. […] (C) Melting curves under same conditions as in (B), but for MBs in solution. MBs were assumed closed once data with and without netropsin converged at lower temperatures.
# BHQ1 is Black Hole Quencher 1, and the 3′ amine is used for surface immobilization via the stem. Repetition with the same MBs printed on commercial aldehyde microarray slides produced a 4-fold gain with transition observed at a similar temperature, FIG. 2A. […] (56-65) In such studies, opening of the MBs is driven by hybridization at the loop section, as opposed to thermal denaturation as in the data of FIG. 2. Efforts to improve the hybridization-induced gains included optimization of pH and salt composition (60-61, 63), insertion of spacers to distance MBs from the solid support, (63) changes in the chemical nature of the solid support (60-61), and isolation of MBs on the surface down to the single-molecule limit. (62) These approaches, however, have not solved the decreased gain, although effective workarounds have been found for hybridization applications (e.g. use of the solid support itself to provide better quenching (66-70)). Surface-immobilized SPs have also produced approximately 4-fold gains upon hybridization. (64) […]
# [3] = tested on: DNA; details: reported for 0.016 M Na+ in ref. 38, corrected to 0.8 M Na+ using ref. 76; cited from earlier work
compound,measurement,setting,value
Cn1cc(NC(=O)c2cc(NC(=O)CN=C(N)N)cn2C)cc1C(=O)NCCC(=N)N [netropsin],Effect on denaturation transition (electrochemical melt curve),"[1]; 0.5 M pH 7 sodium phosphate buffer, scan rate 0.4° C./min",shifts denaturation to higher temperatures
same,ΔΔG°25C (increment of ΔG° of melting attributed to the drug; free energy of binding),"[1]; surface approach, 0.5 M pH 7 sodium phosphate buffer (0.8 M Na+), calculated at 25° C. from fitted ΔH° and ΔS°",-8.9 kcal/mol
same,Effect on melt transition (TM) of surface-immobilized MBs,[2],TM shifting to higher temperatures
same,ΔΔG°25C based on solution methods,[3],-9.2 kcal/mol
